Data reported in patent publication US20090023646A1, “GHRH analogues” (Centre Hospitalier de L'Universite de Montreal (CHUM), priority 2002, published 2009).
Square brackets hold non-standard residues; d marks the D form. Peptide text beside a SMILES is read from it.

Molecular target: T1, human GHRH receptor (Homo sapiens, UniProt Q02643)
T1 construct: expressed in transfected cells; host or cells: BHK (baby hamster kidney) 570 cells
T1 sequence (Q02643 23-423): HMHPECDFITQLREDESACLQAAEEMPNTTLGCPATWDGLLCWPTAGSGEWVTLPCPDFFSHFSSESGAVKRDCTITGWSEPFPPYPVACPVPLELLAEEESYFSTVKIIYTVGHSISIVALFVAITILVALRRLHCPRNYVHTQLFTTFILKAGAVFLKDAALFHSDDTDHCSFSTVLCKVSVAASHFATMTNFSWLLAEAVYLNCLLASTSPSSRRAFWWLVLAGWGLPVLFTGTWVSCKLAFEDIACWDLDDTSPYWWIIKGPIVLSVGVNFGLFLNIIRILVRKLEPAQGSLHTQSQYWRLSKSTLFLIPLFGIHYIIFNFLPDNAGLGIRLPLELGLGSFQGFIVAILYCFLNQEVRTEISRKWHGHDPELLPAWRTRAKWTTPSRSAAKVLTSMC
Assay: Competitive 125I-GHRH binding assay in BHK cell membrane preparations expressing the human GHRH receptor
Method: Non specific binding was determined in presence of 1 μM hGHRH(1-29)NH2. Incubation was carried out at equilibrium (23° C., 60 min) and stopped by centrifugation (12,000 g, 5 min, at 4° C.). The radioactivity content in pellets was determined by gamma counting. The affinity of hGHRH(1-29) NH2 was tested in each experiment to assess the validity of the assay and determine the relative affinity of the analogues.
Values represent the mean±SEM of 3 experiments performed in triplicate for the analogues and the mean±SEM of 2 experiments performed in triplicate for hGHRH(1-44) NH2.
For the binding assay results presented in Tables 8 to 11, values represent the mean±SEM of 8 independent experiments performed in triplicate for the analogues and the mean±SEM of 4 experiments performed in triplicate for hGHRH(1-29)NH2. […] The relative affinity was obtained by taking the ratio IC50 of hGHRH (1-29)-NH2/IC50 analogue.

`CC[C@H](C)[C@H](NC(=O)[C@H](C)NC(=O)[C@H](CC(=O)O)NC(=O)[C@@H](C)NC(=O)[C@@H](N)Cc1ccc(O)cc1)C(=O)N[C@@H](Cc1ccccc1)C(=O)N[C@H](C(=O)N[C@@H](CC(N)=O)C(=O)N[C@@H](CO)C(=O)N[C@H](Cc1ccc(O)cc1)C(=O)N[C@@H](CCCNC(=N)N)C(=O)N[C@@H](CCCCN)C(=O)N[C@H](C(=O)N[C@@H](CC(C)C)C(=O)N[C@H](C)C(=O)N[C@@H](CCC(N)=O)C(=O)N[C@@H](CC(C)C)C(=O)N[C@@H](CO)C(=O)N[C@@H](C)C(=O)N[C@@H](CCCNC(=N)N)C(=O)N[C@@H](CCCCN)C(=O)N[C@@H](CCCCN)C(=O)N[C@@H](CC(C)C)C(=O)N[C@@H](CCC(N)=O)C(=O)N[C@@H](CC(=O)O)C(=O)N[C@H](C(=O)N[C@@H](CCSC)C(=O)N[C@@H](CO)C(=O)N[C@@H](CCCNC(=N)N)C(N)=O)[C@@H](C)CC)C(C)C)[C@@H](C)O` [GHRH analogue #5, [D-Ala^2, D-Tyr^10, D-Ala^15, Lys^22] hGHRH(1-29)-NH2] (H-Y[dA]DAIFTNS[dY]RKVL[dA]QLSARKKLQDIMSR-NH2) was tested, and the IC50 (Table 7, mean±SEM of 3 experiments (analogue) or 2 experiments (hGHRH(1-44)NH2) in triplicate) was “no significant difference was observed” and the “Relative binding affinity (R1) in comparison with hGHRH(1-29)NH2 in BHK cells expressing the hGHRH receptor” value (ratio IC50 of hGHRH(1-29)-NH2/IC50 analogue, mean±SEM) was 939 ± 249.
